Results published in ChEMBL document CHEMBL1795251, “Structure-based design of thienobenzoxepin inhibitors of PI3-kinase” (Bioorg Med Chem Lett, 2011).
Values belong to the compound of their own block, whether it stands above or below them. Active and inactive are the calls of the source. No cut-off for these calls is given here.

Columns and labels:
in vivo [1] = settings: rat, plasma, iv, 1 mg/kg
in vivo [2] = settings: mouse, plasma, iv, 1 mg/kg
[3] = target: Phosphatidylinositol 4,5-bisphosphate 3-kinase catalytic subunit alpha isoform (Homo sapiens, UniProt P42336)
Hepatocyte = test: Metabolic stability in cryopreserved human hepatocytes assessed as N-(2-chlorophenyl)-N-methyl-8-(1H-pyrazol-4-yl)-4,5-dihydrobenzo[b]thieno[2,3-d]oxepine-2-carboxamide formation; format: ADME, cell-based
[4] = target: Serine/threonine-protein kinase mTOR (Homo sapiens, UniProt P42345); test: Inhibition of mTOR
PC-3 = test: Antiproliferative activity against human PC3 cells; format: functional, cell-based
MCF7 = test: Antiproliferative activity against human MCF7 cells; format: functional, cell-based
[5] = Plasma protein binding in human; format: ADME, cell-free; settings: read-out: PPB (converted)
[6] = Plasma protein binding in rat; format: ADME, cell-free; settings: read-out: PPB (converted)
[7] = Plasma protein binding in mouse; format: ADME, cell-free; settings: read-out: PPB (converted)
[8] = Plasma protein binding in dog; format: ADME, cell-free, Canis lupus familiaris; settings: read-out: PPB (converted)
[9] = Plasma protein binding in cynomolgus monkey; format: ADME, cell-free, Macaca fascicularis; settings: read-out: PPB
[10] = Plasma clearance in rat at 100 mg/kg; format: ADME, organism-based; set-up: dose 100 mg/kg
[11] = Oral bioavailability in rat at 100 mg/kg; format: ADME, organism-based; settings: in vivo
[12] = AUC in rat at 100 mg/kg; format: ADME, organism-based; set-up: dose 100 mg/kg; settings: plasma
[13] = Plasma clearance in mouse at 100 mg/kg; format: ADME, organism-based; set-up: dose 100 mg/kg
[14] = Oral bioavailability in mouse at 100 mg/kg; format: ADME, organism-based; settings: in vivo
[15] = AUC in mouse at 100 mg/kg; format: ADME, organism-based; set-up: dose 100 mg/kg; settings: plasma
[16] = Plasma clearance in cynomolgus monkey; format: ADME, organism-based, Macaca fascicularis
Mus musculus [17] = test: Inhibition of PI3K pathway in nude mouse xenografted with HER2 expressing MCF7 assessed as reduction in phosphorylated AKT levels at 50 mg/kg, po administered as single dose after 6 hrs relative to control; format: functional, organism-based; set-up: dose 50 mg/kg
Mus musculus [18] = test: Inhibition of PI3K pathway in nude mouse xenografted with HER2 expressing MCF7 assessed as reduction in phosphorylated PRAS40 levels at 50 mg/kg, po administered as single dose after 6 hrs relative to control; format: functional, organism-based; set-up: dose 50 mg/kg
Mus musculus [19] = test: Inhibition of PI3K pathway in nude mouse xenografted with HER2 expressing MCF7 assessed as reduction in phosphorylated S6RP levels at 50 mg/kg, po administered as single dose after 6 hrs relative to control; format: functional, organism-based; set-up: dose 50 mg/kg
[20] = Plasma clearance in dog at 2 mg/kg; format: ADME, organism-based, Canis lupus familiaris; set-up: dose 2 mg/kg
[21] = Oral bioavailability in dog at 2 mg/kg; format: ADME, organism-based, Canis lupus familiaris; settings: in vivo
[22] = AUC in dog at 2 mg/kg; format: ADME, organism-based, Canis lupus familiaris; set-up: dose 2 mg/kg; settings: plasma
[23] = target: DNA-dependent protein kinase catalytic subunit (Homo sapiens, UniProt P78527); test: Inhibition of DNA-PK
in vivo [24] = settings: nude, mouse, plasma, po, 50 mg/kg
in vivo [25] = settings: nude, mouse, plasma, po, 50 mg/kg; remark: listed apart in the source
in vivo [26] = settings: nude, mouse, tumor, po, 50 mg/kg
in vivo [27] = settings: nude, mouse, tumor, po, 50 mg/kg; remark: listed apart in the source

Chain of Phosphatidylinositol 4,5-bisphosphate 3-kinase catalytic subunit alpha isoform (P42336 whole entry, canonical isoform): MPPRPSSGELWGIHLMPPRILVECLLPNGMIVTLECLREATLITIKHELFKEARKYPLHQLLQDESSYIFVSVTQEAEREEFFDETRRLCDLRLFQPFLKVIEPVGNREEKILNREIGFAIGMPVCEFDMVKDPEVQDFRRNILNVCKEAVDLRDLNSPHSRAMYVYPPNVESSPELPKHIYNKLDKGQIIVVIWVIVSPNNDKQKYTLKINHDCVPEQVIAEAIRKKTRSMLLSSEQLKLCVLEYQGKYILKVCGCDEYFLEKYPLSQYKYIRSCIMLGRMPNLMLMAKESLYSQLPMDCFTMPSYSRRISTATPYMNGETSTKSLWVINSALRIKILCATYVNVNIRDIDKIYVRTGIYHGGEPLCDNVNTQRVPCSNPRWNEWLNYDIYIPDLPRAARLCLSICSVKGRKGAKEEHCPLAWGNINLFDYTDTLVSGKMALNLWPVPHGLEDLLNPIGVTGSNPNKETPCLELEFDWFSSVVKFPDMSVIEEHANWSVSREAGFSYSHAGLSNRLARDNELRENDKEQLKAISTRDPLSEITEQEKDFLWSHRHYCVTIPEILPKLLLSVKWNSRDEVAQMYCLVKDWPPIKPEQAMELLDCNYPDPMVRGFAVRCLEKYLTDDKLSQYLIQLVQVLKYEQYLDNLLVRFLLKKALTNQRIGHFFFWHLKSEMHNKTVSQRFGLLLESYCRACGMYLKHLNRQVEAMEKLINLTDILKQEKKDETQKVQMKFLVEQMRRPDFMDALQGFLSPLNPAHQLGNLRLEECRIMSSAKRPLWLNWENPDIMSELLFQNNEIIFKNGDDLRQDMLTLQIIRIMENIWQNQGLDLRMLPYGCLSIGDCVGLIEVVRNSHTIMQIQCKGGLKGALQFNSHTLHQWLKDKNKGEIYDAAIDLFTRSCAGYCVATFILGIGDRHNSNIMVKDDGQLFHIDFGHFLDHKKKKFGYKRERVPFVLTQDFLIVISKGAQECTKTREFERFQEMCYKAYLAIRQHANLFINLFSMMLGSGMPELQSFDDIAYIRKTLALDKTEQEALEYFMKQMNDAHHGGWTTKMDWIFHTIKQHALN
Chain of DNA-dependent protein kinase catalytic subunit (P78527 whole entry): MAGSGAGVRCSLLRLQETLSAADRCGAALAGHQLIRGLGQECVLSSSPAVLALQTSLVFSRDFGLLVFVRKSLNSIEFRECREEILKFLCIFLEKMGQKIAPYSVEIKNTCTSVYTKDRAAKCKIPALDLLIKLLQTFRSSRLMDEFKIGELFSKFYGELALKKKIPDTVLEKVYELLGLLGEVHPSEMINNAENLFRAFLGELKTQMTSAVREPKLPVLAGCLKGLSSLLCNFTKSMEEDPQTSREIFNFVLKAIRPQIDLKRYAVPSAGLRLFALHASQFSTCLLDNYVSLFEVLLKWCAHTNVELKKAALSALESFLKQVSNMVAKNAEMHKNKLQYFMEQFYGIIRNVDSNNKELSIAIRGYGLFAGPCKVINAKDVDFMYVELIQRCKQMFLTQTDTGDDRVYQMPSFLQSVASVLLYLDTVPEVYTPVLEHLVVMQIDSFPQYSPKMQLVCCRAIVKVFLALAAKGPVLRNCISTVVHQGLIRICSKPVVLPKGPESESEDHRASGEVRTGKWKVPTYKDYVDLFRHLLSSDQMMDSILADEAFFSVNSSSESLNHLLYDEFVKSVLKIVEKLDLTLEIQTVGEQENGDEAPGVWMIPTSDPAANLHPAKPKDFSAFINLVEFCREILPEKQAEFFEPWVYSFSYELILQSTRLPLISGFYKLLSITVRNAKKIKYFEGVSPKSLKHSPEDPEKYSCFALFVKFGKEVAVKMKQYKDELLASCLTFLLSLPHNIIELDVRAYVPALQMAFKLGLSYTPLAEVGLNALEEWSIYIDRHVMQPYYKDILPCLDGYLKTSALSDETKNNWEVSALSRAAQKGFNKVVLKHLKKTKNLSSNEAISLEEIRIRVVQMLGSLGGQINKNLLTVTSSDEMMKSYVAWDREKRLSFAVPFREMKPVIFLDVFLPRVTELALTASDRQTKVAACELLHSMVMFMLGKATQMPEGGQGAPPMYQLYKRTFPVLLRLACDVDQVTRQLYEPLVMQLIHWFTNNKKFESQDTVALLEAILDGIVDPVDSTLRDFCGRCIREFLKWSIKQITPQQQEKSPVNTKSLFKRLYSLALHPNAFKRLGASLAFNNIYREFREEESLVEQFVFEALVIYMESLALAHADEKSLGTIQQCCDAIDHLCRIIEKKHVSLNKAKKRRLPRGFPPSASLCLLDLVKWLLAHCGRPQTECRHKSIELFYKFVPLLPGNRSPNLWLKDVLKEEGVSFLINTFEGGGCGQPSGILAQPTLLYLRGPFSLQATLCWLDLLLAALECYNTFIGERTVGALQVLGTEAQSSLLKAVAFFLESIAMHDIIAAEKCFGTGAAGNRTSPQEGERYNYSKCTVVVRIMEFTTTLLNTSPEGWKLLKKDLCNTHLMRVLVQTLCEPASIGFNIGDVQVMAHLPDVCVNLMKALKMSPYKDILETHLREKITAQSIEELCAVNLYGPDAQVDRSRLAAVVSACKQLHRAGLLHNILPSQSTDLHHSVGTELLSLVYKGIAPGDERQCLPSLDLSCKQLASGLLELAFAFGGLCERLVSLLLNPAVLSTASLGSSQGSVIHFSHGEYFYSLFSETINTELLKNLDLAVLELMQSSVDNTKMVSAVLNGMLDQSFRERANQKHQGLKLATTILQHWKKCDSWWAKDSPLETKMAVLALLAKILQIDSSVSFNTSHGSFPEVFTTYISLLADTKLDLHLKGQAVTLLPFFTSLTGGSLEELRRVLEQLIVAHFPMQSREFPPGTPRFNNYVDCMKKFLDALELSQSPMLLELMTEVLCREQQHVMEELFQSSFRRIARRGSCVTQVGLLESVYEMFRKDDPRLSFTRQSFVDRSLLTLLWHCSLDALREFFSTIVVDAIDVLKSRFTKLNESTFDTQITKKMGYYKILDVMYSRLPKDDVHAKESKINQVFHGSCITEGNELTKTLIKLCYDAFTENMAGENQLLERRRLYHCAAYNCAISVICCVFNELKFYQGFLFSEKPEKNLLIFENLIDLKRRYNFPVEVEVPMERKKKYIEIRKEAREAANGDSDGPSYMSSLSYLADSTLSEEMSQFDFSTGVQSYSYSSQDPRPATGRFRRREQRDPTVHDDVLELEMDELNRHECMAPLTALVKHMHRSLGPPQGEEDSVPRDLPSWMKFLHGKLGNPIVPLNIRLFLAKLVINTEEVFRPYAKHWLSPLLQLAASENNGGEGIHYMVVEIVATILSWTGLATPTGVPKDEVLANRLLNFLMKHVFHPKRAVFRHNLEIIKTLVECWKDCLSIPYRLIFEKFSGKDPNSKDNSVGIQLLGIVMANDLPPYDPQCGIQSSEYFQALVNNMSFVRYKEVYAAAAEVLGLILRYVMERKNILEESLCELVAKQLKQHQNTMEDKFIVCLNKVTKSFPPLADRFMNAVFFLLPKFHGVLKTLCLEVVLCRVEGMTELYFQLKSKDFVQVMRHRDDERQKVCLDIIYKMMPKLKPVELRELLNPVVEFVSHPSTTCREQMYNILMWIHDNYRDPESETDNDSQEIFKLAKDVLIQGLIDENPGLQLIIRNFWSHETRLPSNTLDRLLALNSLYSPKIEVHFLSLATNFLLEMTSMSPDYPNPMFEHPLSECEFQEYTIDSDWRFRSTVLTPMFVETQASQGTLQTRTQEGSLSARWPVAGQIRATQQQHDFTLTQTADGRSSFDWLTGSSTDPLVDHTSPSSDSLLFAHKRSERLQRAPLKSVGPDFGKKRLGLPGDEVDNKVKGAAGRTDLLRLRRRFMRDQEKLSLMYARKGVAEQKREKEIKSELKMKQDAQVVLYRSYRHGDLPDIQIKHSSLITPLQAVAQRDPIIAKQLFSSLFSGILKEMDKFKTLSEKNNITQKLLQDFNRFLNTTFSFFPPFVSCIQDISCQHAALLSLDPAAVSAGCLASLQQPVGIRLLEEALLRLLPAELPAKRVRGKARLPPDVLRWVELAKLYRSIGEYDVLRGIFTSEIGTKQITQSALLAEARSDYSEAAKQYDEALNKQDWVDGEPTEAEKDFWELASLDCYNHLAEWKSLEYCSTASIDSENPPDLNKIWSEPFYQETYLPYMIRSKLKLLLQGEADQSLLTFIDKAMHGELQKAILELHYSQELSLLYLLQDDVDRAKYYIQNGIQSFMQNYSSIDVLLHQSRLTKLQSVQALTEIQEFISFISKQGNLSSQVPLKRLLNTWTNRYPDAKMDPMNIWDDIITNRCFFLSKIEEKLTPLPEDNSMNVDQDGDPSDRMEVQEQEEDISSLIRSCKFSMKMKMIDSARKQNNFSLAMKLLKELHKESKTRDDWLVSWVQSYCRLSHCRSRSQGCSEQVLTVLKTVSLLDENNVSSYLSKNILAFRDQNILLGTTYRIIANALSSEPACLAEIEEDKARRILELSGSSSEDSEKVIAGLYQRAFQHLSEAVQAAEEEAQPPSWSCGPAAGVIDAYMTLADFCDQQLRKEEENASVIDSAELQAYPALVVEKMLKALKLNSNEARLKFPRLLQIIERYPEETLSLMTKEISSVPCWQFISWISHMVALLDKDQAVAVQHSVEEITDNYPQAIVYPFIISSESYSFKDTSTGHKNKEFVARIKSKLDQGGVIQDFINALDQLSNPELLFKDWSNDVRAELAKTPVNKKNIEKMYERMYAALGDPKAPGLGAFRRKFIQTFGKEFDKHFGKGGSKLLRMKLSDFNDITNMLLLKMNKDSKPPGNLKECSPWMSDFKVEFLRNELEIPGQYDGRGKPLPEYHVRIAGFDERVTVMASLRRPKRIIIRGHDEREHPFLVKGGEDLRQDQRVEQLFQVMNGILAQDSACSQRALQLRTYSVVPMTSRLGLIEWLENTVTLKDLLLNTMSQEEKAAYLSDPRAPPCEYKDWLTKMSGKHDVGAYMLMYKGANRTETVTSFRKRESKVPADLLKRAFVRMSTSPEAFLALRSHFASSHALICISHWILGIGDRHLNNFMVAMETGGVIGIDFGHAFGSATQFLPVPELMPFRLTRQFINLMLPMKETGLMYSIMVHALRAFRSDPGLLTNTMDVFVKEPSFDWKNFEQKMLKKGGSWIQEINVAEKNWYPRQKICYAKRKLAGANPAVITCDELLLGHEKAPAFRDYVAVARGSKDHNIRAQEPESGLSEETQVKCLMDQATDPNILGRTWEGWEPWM

SMILES: CNC(=O)c1ccc2c(c1)OCCc1cc(C(=O)N(C)c3ccc(F)cc3Cl)sc1-2
clearance (in vivo [1]): 153 mL/min/kg
clearance (in vivo [2]): 182 mL/min/kg

SMILES: CN(C(=O)c1cc2c(s1)-c1ccc(C(N)=O)cc1OCC2)c1ccccc1Cl
Ki [3]: 1.2 nM
clearance (in vivo [1]): 89 mL/min/kg

SMILES: CN(C(=O)c1cc2c(s1)-c1ccccc1OCC2)c1ccccc1Cl
clearance (in vivo [1]): 60 mL/min/kg

SMILES: CNC(=O)c1ccc2c(c1)OCCc1cc(C(=O)N(C)c3ccccc3Cl)sc1-2
Stability (Hepatocyte): 5 µM

SMILES: CC(C)N(C)C(=O)c1cc2c(s1)-c1ccccc1OC2
IC50 [3]: 5200 nM

SMILES: CNC(=O)c1ccc2c(c1)OCCc1cc(C(=O)N(C)c3cc(C(=O)N(C)C)ccc3Cl)sc1-2
clearance (in vivo [1]): 66 mL/min/kg
clearance (in vivo [2]): 55 mL/min/kg

SMILES: CN(C(=O)c1cc2c(s1)-c1ccccc1OC2)c1cccc(F)c1
IC50 [3]: 1000 nM

SMILES: CC(C)CN(C)C(=O)c1cc2c(s1)-c1ccccc1OC2
IC50 [3]: 17000 nM

SMILES: Cc1ccccc1N(C)C(=O)c1cc2c(s1)-c1ccccc1OC2
IC50 [3]: 699 nM

SMILES: CN(C(=O)c1cc2c(s1)-c1ccccc1OC2)c1ccc(F)cc1
IC50 [3]: 1000 nM

Continued, in another order:

Ki [3]: 31 nM
SMILES: CN(C(=O)c1cc2c(s1)-c1ccc(C(=O)N3CCOCC3)cc1OCC2)c1ccccc1Cl

IC50 [3]: > 10000 nM
SMILES: CN(C(=O)c1cc2c(s1)-c1ccccc1OC2)c1ccccn1

Ki [3]: 2.5 nM
clearance (in vivo [1]): 28 mL/min/kg
clearance (in vivo [2]): 24 mL/min/kg
SMILES: CNC(=O)c1ccc(N(C)C(=O)c2cc3c(s2)-c2ccc(C(=O)NC)cc2OCC3)c(Cl)c1

Ki [3]: 0.6 nM
SMILES: CN(C(=O)c1cc2c(s1)-c1ccc(-c3cn[nH]c3)cc1OCC2)c1ccccc1Cl

IC50 [4]: 530 nM
EC50 (PC-3): 550 nM
EC50 (MCF7): 256 nM
fraction unbound [5]: 0.03
fraction unbound [6]: 0.03
fraction unbound [7]: 0.02
fraction unbound [8]: 0.07
fraction unbound [9]: 0.09
clearance [10]: 36 mL/min/kg
bioavailability [11]: 50%
AUC [12]: 39 µM·h
clearance [13]: 15 mL/min/kg
bioavailability [14]: 28%
AUC [15]: 330 µM·h
clearance [16]: 10 mL/min/kg
clearance [20]: 5 mL/min/kg
bioavailability [21]: 120%
AUC [22]: 17 µM·h
IC50 [23]: 6 nM
clearance (in vivo [1]): 36 mL/min/kg
clearance (in vivo [2]): 15 mL/min/kg
concentration at 1 h (in vivo [24]): 7.38 µM
concentration at 6 h (in vivo [25]): 11.1 µM
concentration at 1 h (in vivo [26]): 1.08 µM
concentration at 6 h (in vivo [27]): 2.24 µM
SMILES: CNC(=O)c1ccc2c(c1)OCCc1cc(C(=O)N(C)c3ccc(C(=O)N(C)C)cc3Cl)sc1-2
inhibition (Mus musculus [17]): Active
inhibition (Mus musculus [18]): Active
inhibition (Mus musculus [19]): Active

IC50 [3]: 673 nM
SMILES: COc1ccccc1N(C)C(=O)c1cc2c(s1)-c1ccccc1OC2

Ki [3]: 473 nM
clearance (in vivo [1]): 23 mL/min/kg
SMILES: CN(C(=O)c1cc2c(s1)-c1ccccc1OCC2)c1ccncc1Cl

IC50 [3]: > 10000 nM
SMILES: CN(C(=O)c1cc2c(s1)-c1ccccc1OCCC2)c1ccccc1Cl

Ki [3]: 1.5 nM
clearance (in vivo [1]): 44 mL/min/kg
SMILES: COC(=O)Nc1ccc2c(c1)OCCc1cc(C(=O)N(C)c3ccccc3Cl)sc1-2

Ki [3]: 65 nM
SMILES: CN(C(=O)c1cc2c(s1)-c1ccc(-c3cn[nH]c3)cc1OCC2)c1ccncc1Cl
